Reference: patent publication US4048305A, “Tripeptides, their esters and amides, and anti-ulcera activity thereof” (Dr. L. Zambeletti S.p.A., priority 1975, dated 1977)
Square brackets hold non-standard residues; d marks the D form. Peptide text beside a SMILES is read from it.

Experiments:
[1] = test system: female rats of "Wistar" strain; test: Gastro-protective activity, Shay method (pylorus tying) in rats; type: in vivo, rat; settings: 100 mg/Kg in peanut oil, 18 hours after administration; for Rat (Shay test) Ulcer depth M ± es: arbitrary values 1 to 4, peanut oil controls 2.4 ± 0.5; for Rat (Shay test) No. of ulcers M ± es: ulcers in the rumen, peanut oil controls 10.7 ± 2.2
Description: Gastro-protective activity of the products was assayed on rats by employing the Shay method (Shay H., Komarov, S. A., Fels, S. S., Meranze, D;, Gruenstein, M. and Siplet, H:Gastroenterology, 5, 43-61, 1945).
The investigation was performed on female rats of "Wistar" strain, of the average weight of 200 g., which had been held, before experiment, in the cages for 10 days at standard ambient conditions (temperature 22° C, humidity about 50%) on a controlled diet (Altromin).
72 hours before the test the animals, distributed into individual cages, were deprived of food while leaving water "ad libitum".
At the end of this time, the animals were anaesthetized with ether and, by opening the abdomen, the tying of the pylorus was effected as well as, thereafter, the administration of the products in the dose of 100 mg/Kg dissolved into peanut oil. The suture of the abdomen was then performed and the animals were then placed again into their respective contention cages.
For each product 15 animals were used whilst another set of 15 animals, which served as control, was given peanut oil at the same volume as that of the treated ones.
After 18 hours from administration of the products, the animals were killed under chloroformic narcosis, the stomachs were removed and opened along the greter curvature and then fixed on cork supports for counting the number of ulcers present in the "rumen" and for evaluating the depth of the lesions by arbitrarily assigning values ranging from 1 to 4 according to the intensity of the lesion.

[2] = test system: "Swiss" strain male mouse; test: Acute toxicity (lethality) in mouse, oral; type: in vivo; settings: for Mouse LD50: Swiss male mouse, fasted 15 hours, suspended in peanut oil, gastric probe
Description: The acute toxicity was assayed in "Swiss" strain male mouse weighing 20-24 g. which were held, before the test, in the cages for 10 days at standard ambient conditions (temperature 22° C, humidity about 50%) and kept on a controlled diet (Altromin).
Before the test, the animals were deprived of food for 15 hours, while leaving water "ad libitum".
Lethality was determined on 10 animals for each group-dose by using on the whole 60 animals for each product. For administration, the products were suspended into peanut oil and administered at the maximum volume of 0.1 ml/10 g. of body weight, by means of a gastric probe.

| SMILES | Rat (Shay test) Ulcer depth M ± es [1] | Rat (Shay test) No. of ulcers M ± es [1] | Mouse LD50 [2] [mg/Kg/os] | LD50 ([2]; mouse, oral, in peanut oil) |
| --- | --- | --- | --- | --- |
| CC(=O)N[C@@H](Cc1ccccc1)C(=O)N[C@@H](Cc1ccccc1)C(=O)N[C@@H](Cc1c[nH]cn1)C(=O)O [N-acetyl-l-phenylalanyl-l-phenylalanyl-l-histidine] (Ac-Phe-Phe-His-OH) | 2.1 ± 0.3 | 8.4 ± 1.8 | ≥ 5000 | approximately 5 g./Kg |
| COC(=O)C(Cc1c[nH]cn1)NC(=O)C(Cc1ccccc1)NC(=O)C(Cc1ccccc1)NC(C)=O (mixture of isomers) [N-acetyl-dl-phenylalanyl-dl-phenylalanyl-dl-histidine methylester] | 1.7 ± 0.2 | 6.7 ± 1.7 | > 5000 |  |
| COC(=O)[C@H](Cc1c[nH]cn1)NC(=O)[C@@H](Cc1ccccc1)NC(=O)[C@H](Cc1ccccc1)NC(C)=O [N-acetyl-l-phenylalanyl-d-phenylalanyl-l-histidine-methylester] | 1.5 ± 0.4 | 5.6 ± 1.5 | > 5000 |  |
| CC(=O)N[C@@H](Cc1ccccc1)C(=O)N[C@H](Cc1ccccc1)C(=O)N[C@@H](Cc1c[nH]cn1)C(N)=O [N-acetyl-l-phenylalanyl-d-phenylalanyl-l-histidineamide] (Ac-Phe-[dF]-His-NH2) | 1.3 ± 0.2 | 6.2 ± 1.6 | > 5000 |  |
| CNC(=O)[C@H](Cc1c[nH]cn1)NC(=O)[C@H](Cc1ccccc1)NC(=O)[C@H](Cc1ccccc1)NC(C)=O [N-acetyl-l-phenylalanyl-l-phenylalanyl-l-histidine methylamide] (Ac-Phe-Phe-His-NHMe) | 1.4 ± 0.3 | 5.8 ± 1.4 | > 5000 |  |
| CC(=O)N[C@@H](Cc1ccccc1)C(=O)N[C@@H](Cc1ccccc1)C(=O)N[C@@H](Cc1c[nH]cn1)C(N)=O [N-acetyl-l-phenylalanyl-l-phenylalanyl-l-histidineamide] (Ac-Phe-Phe-His-NH2) | 1.1 ± 0.4 | 3.1 ± 1.7 | > 5000 |  |
| COC(=O)[C@H](Cc1c[nH]cn1)NC(=O)[C@H](Cc1ccccc1)NC(=O)[C@H](Cc1ccccc1)NC(C)=O [N-acetyl-l-phenylalanyl-l-phenylalanyl-l-histidine methylester] | 1.1 ± 0.3 | 4.6 ± 1.1 | > 5000 |  |
